What was measured:
human factor XIa = human factor XIa (Homo sapiens (Human), UniProt P03951); assay: Measurement of FXIa inhibition (fluorogenic peptide substrate Boc-Glu(OBzl)-Ala-Arg-AMC); assay type: biochemical; details: Table A, 30 min at 22° C., fluorescence
Method: (§1) The factor XIa inhibition of the substances according to the invention is determined using a biochemical test system which utilizes the reaction of a peptidic factor XIa substrate to determine the enzymatic activity of human factor XIa. Here, factor XIa cleaves from the peptic factor XIa substrate the C-terminal aminomethylcoumarin (AMC), the fluorescence of which is measured. The determinations are carried out in microtitre plates.
1 μl of the diluted substance solutions is placed into each of the wells of white microtitre plates from Greiner (384 wells). […] After […] of incubation, the enzyme reaction is started by addition of 20 μl of the factor XIa substrate Boc-Glu(OBzl)-Ala-Arg-AMC dissolved in assay buffer (10 μM in assay buffer) from Bachem, the mixture is incubated at room temperature (22° C.) for 30 min and fluorescence is then measured (excitation: 360 nm, emission: 460 nm). The measured emissions of the test batches with test substance are compared to those of control batches without test substance (only dimethyl sulphoxide instead of test substance in dimethyl sulphoxide), and IC50 values are calculated from the concentration/activity relationships.

human plasma kallikrein = human plasma kallikrein (Homo sapiens (Human), UniProt P03952); assay: Determination of the plasma kallikrein activity (fluorogenic peptide substrate H-Pro-Phe-Arg-AMC); assay type: biochemical; details: Table B; plasma kallikrein inhibition, 30 min at 22° C., fluorescence
Method: as §1, with “To determine the plasma kallikrein” for “The factor XIa”, “invention,” for “invention is determined using”, “system is used” for “system”, “plasma kallikrein” for “factor XIa”, “plasma kallikrein.” for “factor XIa.”
1 μl of the diluted substance solutions is placed into each of the wells of white microtitre plates from Greiner (384 wells). 20 μl of assay buffer (50 mM Tris/HCl pH 7.4; 100 mM sodium chloride solution; 5 mM of calcium chloride solution; 0.1% of bovine serum albumin) and 20 μl of plasma kallikrein from Kordia (0.6 nM in assay buffer) are then added successively. After 15 min of incubation, the enzyme reaction is started by addition of 20 μl of the substrate H-Pro-Phe-Arg-AMC dissolved in assay buffer (10 μM in assay buffer) from Bachem, the mixture is incubated at room temperature (22° C.) for 30 min and fluorescence is then measured (excitation: 360 nm, emission: 460 nm). The measured emissions of the test batches with test substance are compared to those of control batches without test substance (only dimethyl sulphoxide instead of test substance in dimethyl sulphoxide), and IC50 values are calculated from the concentration/activity relationships.

human factor XIa, sequence (P03951 388-625): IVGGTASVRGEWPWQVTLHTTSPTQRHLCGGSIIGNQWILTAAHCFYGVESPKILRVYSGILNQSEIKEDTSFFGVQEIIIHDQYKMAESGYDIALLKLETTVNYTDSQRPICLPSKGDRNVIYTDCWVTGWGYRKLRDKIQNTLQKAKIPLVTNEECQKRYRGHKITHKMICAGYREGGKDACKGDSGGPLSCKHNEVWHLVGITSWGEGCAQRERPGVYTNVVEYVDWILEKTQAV
human factor XIa, sequence (P03951 19-387 partner): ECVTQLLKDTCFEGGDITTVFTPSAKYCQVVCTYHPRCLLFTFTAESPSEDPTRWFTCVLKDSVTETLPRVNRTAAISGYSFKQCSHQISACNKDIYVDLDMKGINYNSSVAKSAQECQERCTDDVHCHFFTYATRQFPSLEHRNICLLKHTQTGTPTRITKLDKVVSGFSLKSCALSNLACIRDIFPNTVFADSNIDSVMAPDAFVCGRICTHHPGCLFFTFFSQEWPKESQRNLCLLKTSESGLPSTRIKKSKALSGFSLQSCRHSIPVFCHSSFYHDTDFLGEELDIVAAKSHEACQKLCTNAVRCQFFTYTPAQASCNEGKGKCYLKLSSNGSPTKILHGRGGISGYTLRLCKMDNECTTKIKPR
human plasma kallikrein, sequence (P03952 391-638): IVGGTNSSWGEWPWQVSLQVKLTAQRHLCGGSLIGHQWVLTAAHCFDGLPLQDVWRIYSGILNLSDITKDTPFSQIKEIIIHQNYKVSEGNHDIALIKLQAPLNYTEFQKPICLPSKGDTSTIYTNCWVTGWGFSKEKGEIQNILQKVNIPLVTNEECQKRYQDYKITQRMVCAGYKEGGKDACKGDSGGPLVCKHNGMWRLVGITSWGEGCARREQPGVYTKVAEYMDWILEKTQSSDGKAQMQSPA
human plasma kallikrein, sequence (P03952 20-390 partner): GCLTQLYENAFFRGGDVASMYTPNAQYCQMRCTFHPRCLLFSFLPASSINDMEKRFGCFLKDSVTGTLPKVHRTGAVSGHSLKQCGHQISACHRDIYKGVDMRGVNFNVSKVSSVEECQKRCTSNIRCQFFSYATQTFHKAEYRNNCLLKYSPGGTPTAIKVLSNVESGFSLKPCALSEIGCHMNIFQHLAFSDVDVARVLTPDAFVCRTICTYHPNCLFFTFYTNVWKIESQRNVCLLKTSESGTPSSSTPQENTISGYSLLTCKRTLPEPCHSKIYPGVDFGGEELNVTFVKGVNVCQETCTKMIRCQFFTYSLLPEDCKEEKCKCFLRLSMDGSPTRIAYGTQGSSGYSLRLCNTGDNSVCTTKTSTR

IC50 (human factor XIa) [nM] | IC50 (human plasma kallikrein) [nM] | Structure (SMILES)
160 | 130 | CNC(=O)c1ccc(NC(=O)C(Cc2ccn(C)n2)n2cc(OC)c(-c3cc(F)ccc3C#N)cc2=O)cn1 (racemic) [Example 49, 5-({2-[4-(2-Cyano-5-fluorophenyl)-5-methoxy-2-oxopyridin-1(2H)-yl]-3-(1-methyl-1H-pyrazol-3-yl)propanoyl}amino)-N-methylpyridine-2-carboxamide (racemate)]
200 | 80 | CNC(=O)c1ccc(NC(=O)C(Cc2ccn(C)n2)n2cc(C3CC3)c(-c3cc(Cl)ccc3C#N)cc2=O)cn1 (racemic) [Example 51, 5-({2-[4-(5-Chloro-2-cyanophenyl)-5-cyclopropyl-2-oxopyridin-1(2H)-yl]-3-(1-methyl-1H-pyrazol-3-yl)propanoyl}amino)-N-methylpyridine-2-carboxamide (racemate)]
20 | 22 | CCC(C(=O)Nc1ccc(C(N)=O)nc1)n1cc(OC)c(-c2cc(Cl)ccc2C#N)cc1=O (centres unmarked) [Example 1]
20 | 16 | CCC(C(=O)Nc1ccc(C(=O)NC)nc1)n1cc(OC)c(-c2cc(Cl)ccc2C#N)cc1=O (centres unmarked) [Example 2]
29 | 100 | COCCC(C(=O)Nc1ccc(C(N)=O)nc1)n1cc(Cl)c(-c2cc(Cl)ccc2C#N)cc1=O (centres unmarked) [Example 3]
16 | 140 | N#Cc1ccc(Cl)cc1-c1cc(=O)n(C(C[C@@H]2CCCCO2)C(=O)Nc2ccc(C(N)=O)nc2)cc1Cl (some centres unmarked) [Example 4]
12 | 120 | CNC(=O)c1ccc(NC(=O)C(C[C@@H]2CCCCO2)n2cc(Cl)c(-c3cc(Cl)ccc3C#N)cc2=O)cn1 (some centres unmarked) [Example 5]
160 | 490 | N#Cc1ccc(Cl)cc1-c1cc(=O)n(C(Cc2ccccn2)C(=O)Nc2ccc(C(N)=O)nc2)cc1OC(F)F (centres unmarked) [Example 7]
11 | 6 | COc1cn(C(Cc2cccnc2)C(=O)Nc2ccc(C(N)=O)nc2)c(=O)cc1-c1cc(Cl)ccc1C#N (centres unmarked) [Example 8]
210 | 470 | N#Cc1ccc(Cl)cc1-c1cc(=O)n(C(Cc2cocn2)C(=O)Nc2ccc(C(N)=O)nc2)cc1Cl (centres unmarked) [Example 10]
48 | 52 | COc1cn(C(Cc2cocn2)C(=O)Nc2ccc(C(N)=O)nc2)c(=O)cc1-c1cc(Cl)ccc1C#N (centres unmarked) [Example 11]
210 | 640 | N#Cc1ccc(Cl)cc1-c1cc(=O)n(C(Cc2cnco2)C(=O)Nc2ccc(C(N)=O)nc2)cc1OC(F)F (centres unmarked) [Example 12]
220 | 250 | COc1cn(C(Cc2ccccn2)C(=O)Nc2ccc(C(N)=O)nc2)c(=O)cc1-c1cc(Cl)ccc1F (centres unmarked) [Example 13]
390 | 160 | COc1cn(C(Cc2cc(C)no2)C(=O)Nc2ccc(C(N)=O)nc2)c(=O)cc1-c1cc(Cl)ccc1F (centres unmarked) [Example 14]
23 | 53 | CNC(=O)c1ccc(NC(=O)C(CCOC)n2cc(Cl)c(-c3cc(Cl)ccc3C#N)cc2=O)cn1 (centres unmarked) [Example 15]
32 | 89 | N#Cc1ccc(Cl)cc1-c1cc(=O)n(C(Cc2cnco2)C(=O)Nc2ccc(C(N)=O)nc2)cc1Cl (centres unmarked) [Example 16]
